From article PMC2676116 (Molecular cancer therapeutics, 2009)

Legend:
Tdp1 [1] = target: T1, Tdp1 (Homo sapiens, UniProt Q9NUW8); assay: Tdp1 AlphaScreen HTS assay; format: biochemical; conditions: for Tdp1 inhibition (in words): AlphaScreen primary / follow-up HTS assay, Fig. 5C
Tdp1 [2] = target: T1, Tdp1; assay: Secondary radiolabel gel-based assay; format: biochemical; conditions: Fig. 5B & C
H493R Tdp1 mutant = H493R Tdp1 mutant (Homo sapiens, UniProt Q9NUW8, H493R); assay: SCAN1 Tdp1 mutant covalent Tdp1-DNA intermediate; format: biochemical; conditions: for accumulation of the covalent Tdp1-DNA intermediate: 10 μM concentration, H493R Tdp1 100 nM
Tdp1 [3] = target: T1, Tdp1; conditions: cited from earlier work
CD-45 associated PTP = conditions: cited from earlier work

Sequence of H493R Tdp1 mutant (Q9NUW8 whole entry H493R): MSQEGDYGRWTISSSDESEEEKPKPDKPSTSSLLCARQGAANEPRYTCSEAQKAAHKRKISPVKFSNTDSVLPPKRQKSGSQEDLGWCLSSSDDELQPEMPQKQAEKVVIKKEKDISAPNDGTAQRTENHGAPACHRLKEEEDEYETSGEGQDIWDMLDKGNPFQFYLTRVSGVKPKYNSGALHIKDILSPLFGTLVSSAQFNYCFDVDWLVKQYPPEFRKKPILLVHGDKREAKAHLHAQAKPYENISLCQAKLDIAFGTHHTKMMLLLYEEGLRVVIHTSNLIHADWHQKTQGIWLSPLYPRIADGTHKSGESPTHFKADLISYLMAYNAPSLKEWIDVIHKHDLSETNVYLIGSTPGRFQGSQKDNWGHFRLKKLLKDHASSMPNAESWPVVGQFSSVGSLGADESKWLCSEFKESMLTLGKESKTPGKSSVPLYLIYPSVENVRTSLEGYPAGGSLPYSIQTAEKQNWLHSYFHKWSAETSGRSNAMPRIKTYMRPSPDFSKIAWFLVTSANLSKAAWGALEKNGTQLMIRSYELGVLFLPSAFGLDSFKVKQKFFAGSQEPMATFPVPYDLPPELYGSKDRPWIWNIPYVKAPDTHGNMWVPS
T1 sequence (Q9NUW8 whole entry): as the sequence (Q9NUW8 whole entry H493R) above, with R493H counted along it

SMILES | Tdp1 inhibition (in words) (Tdp1 [1]) | Tdp1 inhibition (in words) (Tdp1 [2]) | accumulation of the covalent Tdp1-DNA intermediate (H493R Tdp1 mutant) | concentration at which Tdp1 is inhibited (in words) (Tdp1 [3]) | further results
CN(N=O)c1cc(O)ccc1O [dephostatin] | only trace inhibition | only a trace level of inhibition | much weaker effect | – | Tdp1 inhibition (in words) (Tdp1 [2]; listed as Dephostatin): only trace inhibition; effect on binding of the Tdp1 DNA substrate (DNA trapping) (H493R Tdp1 mutant; SCAN1 Tdp1 mutant): almost no effect
[O]=[W](=[O])([O-])[O-] [tungstate] | – | – | – | millimolar concentrations | –
N=C(N)c1ccc(-c2ccc(-c3ccc(C(=N)N)cc3)o2)cc1 [Furamidine, furamidine] | – | – | – | micromolar concentrations | –
CN(N=O)c1ccc(O)c(O)c1 [methyl-3,4-dephostatin] | sub-micromolar concentration | sub-micromolar concentration | completely prevented | – | inhibition of CD-45 associated PTP (CD-45 associated PTP): does not inhibit
[O]=[V]([O-])([O-])[O-] [vanadate] | – | – | – | millimolar concentrations | Tdp1 inhibition potency (in words) (Tdp1 [1]; AlphaScreen assay, 384-well, Fig. 3C): inhibition in the sub-millimolar range
